Laboratory results reported in patent US8906930B2, “Quinazoline derivatives” (Merck Patent GmbH, priority 2009, dated 2014).

Target: T1, Recombinant human HSP90α (Homo sapiens, UniProt P07900)
T1 construct: host or cells: E. coli
Experiment: HSP90 radioligand filter binding test ([3H]17AAG competition)
Details: radioligand [3H]17AAG 0.08 μM; HSP90 1.5 μg/assay; 22° C., 30 min; read-out: HSP90 inhibition IC50
Source text: The binding of geldanamycin or 17-allylamino-17-demethoxygeldanamycin (17AAG) to HSP90 and competitive inhibition thereof can be utilised in order to determine the inhibitory activity of the compounds according to the invention (Carreras et al. 2003, Chiosis et al. 2002).
In the specific case, a radioligand filter binding test is used. The radioligand used here is tritium-labelled 17-allylaminogeldanamycin, [3H]17AAG. This filter binding test allows a targeted search for inhibitors which interfere with the ATP binding site.
Recombinant human HSP90α (E. coli expressed, 95% purity);
[3H]17AAG (17-allylaminogeldanamycin, [allylamino-2,3-^3H. Specific activity: 1.11×10^12 Bq/mmol (Moravek, MT-1717);
HEPES filter buffer (50 mM HEPES, pH 7.0, 5 mM MgCl2, BSA 0.01%) Multiscreen FB (1 μm) filter plate (Millipore, MAFBNOB 50).
The 96-well microtitre filter plates are firstly irrigated and coated with 0.1% of polyethylenimine.
The test is carried out under the following conditions:
Reaction temperature 22° C.
Reaction time: 30 min., shaking at 800 rpm
50 mM HEPES HCl, pH 7.0, 5 mM MgCl2, 0.01% (w/v) of BSA
At the end of the reaction, the supernatant in the filter plate is removed by suction with the aid of a vacuum manifold (Multiscreen Separation System, Millipore), and the filter is washed twice.
The filter plates are then measured in a beta counter (Microbeta, Wallac) with scintillator (Microscint 20, Packard).
“% of control” is determined from the “counts per minutes” values, and the IC-50 value of a compound is calculated therefrom.

SMILES	IC50 [nM]
Nc1nc(C(=O)N2Cc3ccccc3C2)c2cc(C3(C(=O)N4CCCC4)CC3)ccc2n1 [Compound A27, [2-Amino-6-[1-(pyrrolidine-1-carbonyl)cyclopropyl]quinazolin-4-yl]isoindolin-2-ylmethanone]	1000 to 10000
Nc1nc(C(=O)N2Cc3ccccc3C2)c2cc(CC(=O)N3CCCC3)ccc2n1 [Compound A13, 2-[2-Amino-4-(isoindoline-2-carbonyl)quinazolin-6-yl]-1-pyrrolidin-1-ylethanone]	1000 to 10000
NC(=O)CNC(=O)C1(c2ccc3nc(N)nc(C(=O)N4Cc5ccccc5C4)c3c2)CCC1 [Compound A33, 1-[2-Amino-4-(isoindoline-2-carbonyl)quinazolin-6-yl]-N-(2-amino-2-oxoethyl)cyclobutanecarboxamide]	10 to 1000
CCCNC(=O)C1(c2ccc3nc(N)nc(C(=O)N4Cc5ccccc5C4)c3c2)CCC1 [Compound A32, 1-[2-Amino-4-(isoindoline-2-carbonyl)quinazolin-6-yl]-N-propylcyclobutanecarboxamide]	10 to 1000
CN(Cc1cncn1C)C(=O)Cc1ccc2nc(N)nc(C(=O)N3Cc4ccccc4C3)c2c1 [Compound A19]	1000 to 10000
CC(C)(C)NC(=O)C1(c2ccc3nc(N)nc(C(=O)N4Cc5ccccc5C4)c3c2)CCC1 [Compound A29, 1-[2-Amino-4-(isoindoline-2-carbonyl)quinazolin-6-yl]-N-tert-butylcyclobutanecarboxamide]	10 to 1000
CN1CCN(C(=O)Cc2ccc3nc(N)nc(C(=O)N4Cc5ccccc5C4)c3c2)CC1 [Compound A17, 2-[2-Amino-4-(isoindoline-2-carbonyl)quinazolin-6-yl]-1-(4-methylpiperazin-1-yl)ethanone]	1000 to 10000
CCNC(=O)C1(c2ccc3nc(N)nc(C(=O)N4Cc5ccccc5C4)c3c2)CCCC1 [Compound A53, 1-[2-Amino-4-(isoindoline-2-carbonyl)quinazolin-6-yl]-N-ethylcyclopentanecarboxamide]	10 to 1000
CCN(CCO)C(=O)Cc1ccc2nc(N)nc(C(=O)N3Cc4ccccc4C3)c2c1 [Compound A12, 2-[2-Amino-4-(isoindoline-2-carbonyl)quinazolin-6-yl]-N-(2-hydroxyethyl)-N-ethylacetamide]	1000 to 10000
CC(C)CNC(=O)C(C)(C)c1ccc2nc(N)nc(C(=O)N3Cc4ccccc4C3)c2c1 [Compound A37, 2-[2-Amino-4-(isoindoline-2-carbonyl)quinazolin-6-yl]-N-isobutyl-2-methylpropanamide]	10 to 1000
CCN(CCO)C(=O)C1(c2ccc3nc(N)nc(C(=O)N4Cc5ccccc5C4)c3c2)CC1 [Compound A26, 1-[2-Amino-4-(isoindoline-2-carbonyl)quinazolin-6-yl]-N-(2-hydroxyethyl)-N-ethylcyclopropanecarboxamide]	1000 to 10000
CN(CCO)C(=O)C1(c2ccc3nc(N)nc(C(=O)N4Cc5ccccc5C4)c3c2)CC1 [Compound A25, 1-[2-Amino-4-(isoindoline-2-carbonyl)quinazolin-6-yl]-N-(2-hydroxyethyl)-N-methylcyclopropanecarboxamide]	1000 to 10000
Nc1nc(C(=O)N2Cc3ccccc3C2)c2cc(CC(=O)N3CCNCC3)ccc2n1 [Compound A18, 2-[2-amino-4-(isoindoline-2-carbonyl)quinazolin-6-yl]-1-piperazin-1-ylethanone]	> 10000
CCN(C)C(=O)C1(c2ccc3nc(N)nc(C(=O)N4Cc5ccccc5C4)c3c2)CC1 [Compound A23, 1-[2-Amino-4-(isoindoline-2-carbonyl)quinazolin-6-yl]-N-ethyl-N-methylcyclopropanecarboxamide]	1000 to 10000
CC1CCCN1C(=O)Cc1ccc2nc(N)nc(C(=O)N3Cc4ccccc4C3)c2c1 (stereo not shown) [Compound A14, 2-[2-Amino-4-(isoindoline-2-carbonyl)quinazolin-6-yl]-1-(2-methylpyrrolidin-1-yl)ethanone]	1000 to 10000
CCN(CCN(C)C)C(=O)C1(c2ccc3nc(N)nc(C(=O)N4Cc5ccccc5C4)c3c2)CC1 [Compound A28, 1-[2-Amino-4-(isoindoline-2-carbonyl)quinazolin-6-yl]-N-(2-dimethylaminoethyl)-N-ethylcyclopropanecarboxamide]	1000 to 10000
CC1CCC(C)N1C(=O)Cc1ccc2nc(N)nc(C(=O)N3Cc4ccccc4C3)c2c1 (stereo not shown) [Compound A15, 2-[2-Amino-4-(isoindoline-2-carbonyl)quinazolin-6-yl]-1-(2,5-dimethylpyrrolidin-1-yl)ethanone]	1000 to 10000
Nc1nc(C(=O)N2Cc3ccccc3C2)c2cc(C3(C(=O)O)CC3)ccc2n1 [Compound A57, 1-[2-Amino-4-(isoindoline-2-carbonyl)quinazolin-6-yl]cyclopropanecarboxylic acid]	10 to 1000
CCN(CC)C(=O)C1(c2ccc3nc(N)nc(C(=O)N4Cc5ccccc5C4)c3c2)CC1 [Compound A24, 1-[2-Amino-4-(isoindoline-2-carbonyl)quinazolin-6-yl]-N,N-diethylcyclopropanecarboxamide]	1000 to 10000

More lines, now with the values ahead:

IC50 [nM]	SMILES
1000 to 10000	C=C(CC(C(=O)NCC)c1ccc2nc(N)nc(C(=O)N3Cc4ccccc4C3)c2c1)C(N)=O (stereo not shown) [Compound A50, 2-[2-Amino-4-(isoindoline-2-carbonyl)quinazolin-6-yl]-N′-ethyl-2-methylene-pentanediamide]
1000 to 10000	Nc1nc(C(=O)N2Cc3ccccc3C2)c2cc(CC(=O)O)ccc2n1 [Compound A2, 2-[2-Amino-4-(isoindoline-2-carbonyl)quinazolin-6-yl]acetic acid]
10 to 1000	CCCC(C(=O)NCC)c1ccc2nc(N)nc(C(=O)N3Cc4ccccc4C3)c2c1 (stereo not shown) [Compound A43, 2-[2-Amino-4-(isoindoline-2-carbonyl)quinazolin-6-yl]-N-ethylpentanamide]
10 to 1000	CNC(=O)C(CCC(F)F)c1ccc2nc(N)nc(C(=O)N3Cc4ccccc4C3)c2c1 (stereo not shown) [Compound A41, 2-[2-Amino-4-(isoindoline-2-carbonyl)quinazolin-6-yl]-N-methyl-5,5-difluoropentanamide]
1000 to 10000	CCN(C)C(=O)Cc1ccc2nc(N)nc(C(=O)N3Cc4ccccc4C3)c2c1 [Compound A10, 2-[2-Amino-4-(isoindoline-2-carbonyl)quinazolin-6-yl]-N-ethyl-N-methylacetamide]
1000 to 10000	CN(CCO)C(=O)Cc1ccc2nc(N)nc(C(=O)N3Cc4ccccc4C3)c2c1 [Compound A11, 2-[2-Amino-4-(isoindoline-2-carbonyl)quinazolin-6-yl]-N-(2-hydroxyethyl)-N-methylacetamide]
10 to 1000	CCOC(=O)Cc1ccc2nc(N)nc(C(=O)N3Cc4ccccc4C3)c2c1 [Compound A1, Ethyl 2-[2-amino-4-(isoindoline-2-carbonyl)quinazolin-6-yl]acetate]
1000 to 10000	NC(=O)Cc1ccc2nc(N)nc(C(=O)N3Cc4ccccc4C3)c2c1 [Compound A3, 2-[2-amino-4-(isoindoline-2-carbonyl)quinazolin-6-yl]acetamide]
10 to 1000	CCNC(=O)C(CC(C)C)c1ccc2nc(N)nc(C(=O)N3Cc4ccccc4C3)c2c1 (stereo not shown) [Compound A46, 2-[2-Amino-4-(isoindoline-2-carbonyl)quinazolin-6-yl]-N-ethyl-4-methylpentanamide]
10 to 1000	CCCC(C)(C(=O)NCC)c1ccc2nc(N)nc(C(=O)N3Cc4ccccc4C3)c2c1 (stereo not shown) [Compound A55, 2-[2-Amino-4-(isoindoline-2-carbonyl)quinazolin-6-yl]-N-ethyl-2-methylpentanamide]
10 to 1000	NC(=O)C(CCC(F)F)c1ccc2nc(N)nc(C(=O)N3Cc4ccccc4C3)c2c1 (stereo not shown) [Compound A4]
1000 to 10000	C=C(CC(C(=O)O)c1ccc2nc(N)nc(C(=O)N3Cc4ccccc4C3)c2c1)C(N)=O (stereo not shown) [Compound A74]
1000 to 10000	CN(C)C(=O)Cc1ccc2nc(N)nc(C(=O)N3Cc4ccccc4C3)c2c1 [Compound A9, 2-[2-Amino-4-(isoindoline-2-carbonyl)quinazolin-6-yl]-N,N-dimethylacetamide]
1000 to 10000	CCNC(=O)Cc1ccc2nc(N)nc(C(=O)N3Cc4ccccc4C3)c2c1 [Compound A6, 2-[2-amino-4-(isoindoline-2-carbonyl)quinazolin-6-yl]-N-ethylacetamide]
10 to 1000	CCCNC(=O)C(C)(C)c1ccc2nc(N)nc(C(=O)N3Cc4ccccc4C3)c2c1 [Compound A38, 2-[2-Amino-4-(isoindoline-2-carbonyl)quinazolin-6-yl]-N-propyl-2-methylpropanamide]
10 to 1000	CCNC(=O)C(c1ccc2nc(N)nc(C(=O)N3Cc4ccccc4C3)c2c1)C(C)C (stereo not shown) [Compound A48, 2-[2-Amino-4-(isoindoline-2-carbonyl)quinazolin-6-yl]-N-ethyl-3-methyl-butanamide]
10 to 1000	CCNC(=O)C1(c2ccc3nc(N)nc(C(=O)N4Cc5ccccc5C4)c3c2)CC1 [Compound A21, 1-[2-Amino-4-(isoindoline-2-carbonyl)quinazolin-6-yl]-N-ethylcyclopropanecarboxamide]
10 to 1000	CCNC(=O)C(C)(C)c1ccc2nc(N)nc(C(=O)N3Cc4ccccc4C3)c2c1 [Compound A36, 2-[2-Amino-4-(isoindoline-2-carbonyl)quinazolin-6-yl]-N-ethyl-2-methylpropanamide]
